Our source for the IC50 values is patent US6121277A, “Camptothecin-skeleton compounds isolated from Mappia foetida and the use thereof as syntones for novel medicaments as well as therapeutical agents” (Indena S.p.A., priority 1996, dated 2000).

pIC50: −log10 of the molar value. Like-named read-outs stand apart in the source and are kept apart here.

Assay [1] has as its system HCT116. Description: Cytotoxic activity against colon carcinoma line HCT116. The class given is cell-based. The settings on record: Homo sapiens. From the text: (§1) Compounds 1 have cytotoxic activity against tumor cell lines. For example, Table 1 reports the cytotoxic activity against a colon carcinoma line (HCT116) and against the same line resistant to the most common chemotherapeutics (HCT116/VM46).

For assay [2], the system named is HCT116/VM46. As to the kind of experiment: Cytotoxic activity against the same line resistant to the most common chemotherapeutics (HCT116/VM46). The class given is cell-based. The settings on record: Homo sapiens.
Text: as §1

In the case of `CCC(O)(C(=O)O)c1cc2n(c(=O)c1COC(C)=O)Cc1cc3ccccc3nc1-2` (stereo not shown) [17-Acetyl-camptothecinic acid, 17-acetyl-camptothecinic acid], the pIC50 in assay [1] (HCT-116, colon carcinoma line HCT116, read-out: IC50 Line HCT116) is 8.09; in assay [2] (HCT-116/VM46, HCT116/VM46, resistant to the most common chemotherapeutics, read-out: IC50 Line HCT116/VM46) it was 7.60.

Consider `CC[C@@]1(O)C(=O)OCc2c1cc1n(c2=O)Cc2cc3ccccc3nc2-1` [Camptothecin, camptothecin], for which the pIC50 in assay [1] (HCT-116, read-out: IC50 Line HCT116) was 7.98; in assay [2] (HCT-116/VM46, read-out: IC50 Line HCT116/VM46), 7.01.
